Patent US4293483A, “Derivatives of A-30912A nucleus” (priority 1980, dated 1981)
Where two headings read alike, the source gives them in different places. Numbered stars: 1 amine (or outer) side, 2 acyl side, 3 side chain; on linkers, the order of the positions; unused ones are H or OH. Bridge positions count the residues as written; N and C are the ends. Square brackets hold non-standard residues; d marks the D form. Peptide text beside a SMILES is read from it. * marks the point of attachment. Orn(4R-OH,5R-OH) = O=C([C@H](C[C@@H](O)[C@@H](O)N[*:3])N[*:1])[*:2]; hTyr(3S-OH,4S-OH) = N[C@H](C(=O)O)[C@H](O)[C@@H](O)c1ccc(O)cc1; Pro(3S-OH,4S-Me) = C[C@H]1CN[C@H](C(=O)O)[C@H]1O; 4Abz(2-Cl) = O=C(c1ccc(N[*:1])cc1Cl)[*:2]; X5 = O=C(c1cc(Cl)cc(N[*:1])c1Cl)[*:2]; X9 = COc1ccc(C(=O)[*:2])cc1N[*:1]; Hyp = O=C(O)[C@@H]1C[C@@H](O)CN1; Lauroyl = CCCCCCCCCCCC(=O)*; Decanoyl = CCCCCCCCCC(=O)*; 4Abz = Nc1ccc(C(=O)O)cc1; Heptanoyl = CCCCCCC(=O)*; Octanoyl = CCCCCCCC(=O)*; Aun = NCCCCCCCCCCC(=O)O

How the values were obtained:
[1] = tested on: Trichophyton mentagrophytes; experiment: Agar plate disc diffusion test, zone of inhibition; format: cell-based; conditions: 7 mm disc
Protocol: (§1) ^(a) Compounds were tested as suspension in methanol.
(§2) were tested at a concentration of 1 mg/ml by a dipping 7mm disc into the
(§3) suspension and placing it on the agar surface. Incubation: 24-48 hours at

Candida albicans A-26 [2] = experiment: Therapeutic activity against Candida albicans A-26 infection in mice; format: in vivo; conditions: A26, sc
Protocol: The results of in vivo tests to evaluate the effectiveness of the compound of Examples 61-81, 86 and 88 against an infection caused by Candida albicans A-26 in mice are given in Table 7, where activity is measured by the ED50 value (the dose in mg/kg. required to cure 50% of the test animals). Where an ED50 value was not obtained, activity is indicated by the lowest dose at which a significant anti-fungal effect is observed. In this test, groups of male albino mice (specific pathogen free), weighing 18 to 20 grams, are infected intravenously with Candida albicans A-26. The animals are X-irradiated 24 hours prior to infection at about 50 roentgens per minute for 8 minutes (400 total dose) to reduce immune responses to the infecting organism. At 0, 4, and 24 hours post infection each group of mice is given graded doses subcutaneously of the test compound as a suspension in 33% polyethylene glycol-water. The day of death for each animal is recorded.
*Dosage Schedule: 40, 20, 15, and 10 mg/kg. Dosages given 0, 4, and 24
hours post injection as suspension of test compound in 30% PEGH2 O.
Number of mice receiving test compounds at each dosage level: 6 mice per
group. Number of mice in control (untreated) group: 10 mice per group.
**As measured by increase in survival time of treated animals versus
control, calculated by method of Reed V. Mueuch, American J. Hygiene, 493

[3] = tested on: Saccharomyces pastorianus X-52; experiment: Agar plate disc diffusion test, zone of inhibition; format: cell-based; conditions: Saccharomyces pastorianus, X52, 48 h, Saccharomyces pastorianus X-52; 1 mg/ml suspension in methanol, 7 mm disc; 24-48 hours at 25-37° C.; read-out: Size of Zone of Inhibition
Protocol: as §1, §2, §3

Candida albicans A-26 [4] = experiment: Agar plate disc diffusion test, zone of inhibition; format: cell-based; conditions: 7 mm disc; for Size of Zone of Inhibition: 1 mg/ml suspension in methanol, 24-48 hours at 25-37° C., no regrowth mark
Protocol: as §1, §2, §3

Neurospora Crassa 846 = experiment: Agar plate disc diffusion test, zone of inhibition; format: cell-based; conditions: Neurospora crassa, 7 mm disc
Protocol: as §1, §2, §3

[5] = tested on: Trychophyton mentagrophytes #6; experiment: Agar plate disc diffusion test, MIC per disc; format: cell-based; conditions: 0.01M sodium borate, pH 7.5, 24 hours at 30° C.
Protocol: (§4) In Table 5, activity is measured by the minimal inhibitory concentration (MIC) of the substance (μg/disc) required to inhibit growth of the test organism.
(§5) *Compounds were suspended in 0.01M sodium borate solution, pH 7.5.
(§6) compounds were tested at 20 μg/disc at top level and at twofold
(§7) dilutions until end points were reached.

[6] = mouse, in vivo, 416 mg/kg, 240 min
Protocol: In this test, mice are gavaged with a dose of 416 mg/kg of the test compound suspended in 33% PEG 400-water. At time intervals, blood samples are taken from the orbital sinus and are assayed for antibiotic activity as follows: A 7 mm. disc containing 20 μl of whole blood is placed on agar seeded with Aspergillus montevidensis A35137. After 40 hours incubation at 30° C. zones of inhibition from the blood samples are compared to a standard obtained from the test compound, and the amount of compound in the blood sample is calculated.

Candida albicans A-26 [7] = experiment: Agar plate disc diffusion test, MIC per disc; format: cell-based; conditions: 0.01M sodium borate, pH 7.5, 24 hours at 30° C.
Protocol: as §4, §5, §6, §7

[8] = 1 mg/ml, * measurable zone of inhibition with regrowth of organism around disc, read-out: Size of Zone of Inhibition (*)
[9] = subcutaneous at 0, 4 and 24 hours post infection, dose to cure 50% of test animals, by increase in survival time, read-out: ED50
[10] = subcutaneous at 0, 4 and 24 hours post infection, lowest dose with significant anti-fungal effect, read-out: Lowest Active Dose
[11] = CRASSA846, Neurospora Crassa 846, 1 mg/ml, * measurable zone of inhibition with regrowth of organism around disc, read-out: Size of Zone of Inhibition (*)
[12] = read-out: Lowest Active Dose, subcutaneous at 0, 4 and 24 hours post infection, lowest dose with significant anti-fungal effect

SMILES	zone of inhibition at 1000 µg/mL [1, 8]	ED50 (Candida albicans A-26 [2]; [9])	minimal effective dose (Candida albicans A-26 [2]; [10])	zone of inhibition at 1000 µg/mL [3]	Size of Zone of Inhibition (Candida albicans A-26 [4])	zone of inhibition at 1000 µg/mL (Neurospora Crassa 846; [11])	MIC [5]	Blood Levels [6]	zone of inhibition at 1000 µg/mL ([1]; 48 h, 1 mg/ml suspension in methanol, 24-48 hours at 25-37° C., no regrowth mark, read-out: Size of Zone of Inhibition)	ED50 (Candida albicans A-26 [2])	minimal effective dose (Candida albicans A-26 [2]; [12])	Size of Zone of Inhibition (*) (Candida albicans A-26 [4]; 1 mg/ml, * measurable zone of inhibition with regrowth of organism around disc)	zone of inhibition at 1000 µg/mL (Neurospora Crassa 846; CRASSA846, 48 h, Neurospora Crassa 846, 1 mg/ml suspension in methanol, 24-48 hours at 25-37° C., no regrowth mark, read-out: Size of Zone of Inhibition)	MIC (Candida albicans A-26 [7])
CCCCCCCCCCCC(=O)Nc1cc(C(=O)N[C@H]2C[C@@H](O)[C@@H](O)NC(=O)[C@@H]3[C@@H](O)[C@@H](C)CN3C(=O)[C@H]([C@@H](C)O)NC(=O)[C@H]([C@H](O)[C@@H](O)c3ccc(O)cc3)NC(=O)[C@@H]3C[C@@H](O)CN3C(=O)[C@H]([C@@H](C)O)NC2=O)ccc1OC [Example 71] (Lauroyl-[X9][Orn(4R-OH,5R-OH)]T[Hyp][hTyr(3S-OH,4S-OH)]T[Pro(3S-OH,4S-Me)]; lactam 2-C)	50 mm	> 40 mg/kg	> 40 mg/kg	10 mm	20 mm	32 mm	–	–	–	–	–	–	–	–
CCCCCCC(=O)NCCCCCCCCCCC(=O)N[C@H]1C[C@@H](O)[C@@H](O)NC(=O)[C@@H]2[C@@H](O)[C@@H](C)CN2C(=O)[C@H]([C@@H](C)O)NC(=O)[C@H]([C@H](O)[C@@H](O)c2ccc(O)cc2)NC(=O)[C@@H]2C[C@@H](O)CN2C(=O)[C@H]([C@@H](C)O)NC1=O [Example 76] ({Heptanoyl-Aun}-[Orn(4R-OH,5R-OH)]T[Hyp][hTyr(3S-OH,4S-OH)]T[Pro(3S-OH,4S-Me)]; lactam 1-C)	35 mm	> 40 mg/kg	> 40 mg/kg	–	10 mm	20 mm	0.625 μg/disc	0 µg/mL	–	–	–	–	–	–
CCCCCCC(=O)Nc1ccc(C(=O)N[C@H]2C[C@@H](O)[C@@H](O)NC(=O)[C@@H]3[C@@H](O)[C@@H](C)CN3C(=O)[C@H]([C@@H](C)O)NC(=O)[C@H]([C@H](O)[C@@H](O)c3ccc(O)cc3)NC(=O)[C@@H]3C[C@@H](O)CN3C(=O)[C@H]([C@@H](C)O)NC2=O)cc1 [Example 78] ({Heptanoyl-4Abz}-[Orn(4R-OH,5R-OH)]T[Hyp][hTyr(3S-OH,4S-OH)]T[Pro(3S-OH,4S-Me)]; lactam 1-C)	–	–	–	20 mm	–	–	1.25 μg/disc	–	14 mm	> 40 mg/kg	> 40 mg/kg	45 mm	25 mm	–
CCCCCCCCCC(=O)Nc1ccc(C(=O)N[C@H]2C[C@@H](O)[C@@H](O)NC(=O)[C@@H]3[C@@H](O)[C@@H](C)CN3C(=O)[C@H]([C@@H](C)O)NC(=O)[C@H]([C@H](O)[C@@H](O)c3ccc(O)cc3)NC(=O)[C@@H]3C[C@@H](O)CN3C(=O)[C@H]([C@@H](C)O)NC2=O)cc1 [Example 79] ({Decanoyl-4Abz}-[Orn(4R-OH,5R-OH)]T[Hyp][hTyr(3S-OH,4S-OH)]T[Pro(3S-OH,4S-Me)]; lactam 1-C)	–	–	–	17 mm	24 mm	30 mm	–	–	–	26 mg/kg	5 mg/kg	–	–	0.625 μg/disc
CCCCCCCC(=O)Nc1ccc(C(=O)N[C@H]2C[C@@H](O)[C@@H](O)NC(=O)[C@@H]3[C@@H](O)[C@@H](C)CN3C(=O)[C@H]([C@@H](C)O)NC(=O)[C@H]([C@H](O)[C@@H](O)c3ccc(O)cc3)NC(=O)[C@@H]3C[C@@H](O)CN3C(=O)[C@H]([C@@H](C)O)NC2=O)c(Cl)c1 [Example 86] (Octanoyl-[4Abz(2-Cl)][Orn(4R-OH,5R-OH)]T[Hyp][hTyr(3S-OH,4S-OH)]T[Pro(3S-OH,4S-Me)]; lactam 2-C)	–	29 mg/kg	10 mg/kg	–	–	–	–	–	–	–	–	–	–	–
CCCCCCCC(=O)Nc1cc(Cl)cc(C(=O)N[C@H]2C[C@@H](O)[C@@H](O)NC(=O)[C@@H]3[C@@H](O)[C@@H](C)CN3C(=O)[C@H]([C@@H](C)O)NC(=O)[C@H]([C@H](O)[C@@H](O)c3ccc(O)cc3)NC(=O)[C@@H]3C[C@@H](O)CN3C(=O)[C@H]([C@@H](C)O)NC2=O)c1Cl [Example 88] (Octanoyl-[X5][Orn(4R-OH,5R-OH)]T[Hyp][hTyr(3S-OH,4S-OH)]T[Pro(3S-OH,4S-Me)]; lactam 2-C)	–	–	–	–	–	–	–	–	–	> 40 mg/kg	20 mg/kg	–	–	–
